According to patent US20060069132A1, “Azolecarboxamide herbicides” (priority 2004, published 2006):

Assays:
annual bluegrass = assay: Test E pre-/postemergence herbicide test; assay type: in vivo, Poa annua; conditions: Preemergence
Method in brief: (§1)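 Each species was compared with untreated controls 12 to 14 days after greenhouse application and assigned a visual score from 0 (no effect) to 100 (complete control). Applications were preemergence to seeded soil or postemergence to 1- to 4-leaf plants, using a solvent-plus-surfactant formulation.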

johnsongrass = assay: Test E pre-/postemergence herbicide test; assay type: in vivo, Sorghum halepense; conditions: Preemergence
Method in brief: as §1

wild oat = assay: Test C postemergence herbicide test; assay type: in vivo, Avenafatua; conditions: postemergence, scale 0 to 100
Method in brief: (§2)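 Scoring by eye, 12–14 days post-treatment, greenhouse-held plants vs. controls; 0 no effect, 100 complete control. Sprayed at 1–4 leaves (2–18 cm); paddy barnyardgrass at 2 leaves, flooded.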

large crabgrass = assay: Test E pre-/postemergence herbicide test; assay type: in vivo, Digitaria sanguinalis; conditions: Preemergence
Method in brief: as §1

winter barley = assay: Test C postemergence herbicide test; assay type: in vivo, Hordeum vulgare
Method in brief: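 Injury scored visually against controls on a 0 (no effect) to 100 (complete control) scale, 12 to 14 days after treatment in greenhouse. Flooded paddy plants treated at 2-leaf stage; postemergence plants at 1- to 4-leaf stage, 2 to 18 cm tall.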

canarygrass = assay: Test C postemergence herbicide test; assay type: in vivo, Phalaris minor
Method in brief: as §2

Italian ryegrass = assay: Test E pre-/postemergence herbicide test; assay type: in vivo, Lolium multiflorum; conditions: Preemergence
Method in brief: as §1

bipinnate beggarticks = assay: Test E pre-/postemergence herbicide test; assay type: in vivo, Bidens bipinnata; conditions: Preemergence
Text: Seeds of plant species selected from bipinnate beggarticks (Bidens bipinnata L.), hairy beggarticks (Bidens radiata Thuill.), bermudagrass (Cynodon dactylon (L.) Pers.), Surinam grass (Urochloa decumbens (Staph) R. D. Webster, previously named Brachiaria decumbens Stapf), large crabgrass (Digitaria sanguinalis (L.) Scop.), green foxtail (Setaria viridis (L.) P. Beauv.), goosegrass (Eleusine indica (L.) Gaertn.), johnsongrass (Sorghum halepense (L.) Pers.), kochia (Kochia scoparia (L.) Schrad.), pitted morningglory (Ipomoea lacunosa L.), purple nutsedge (Cyperus rotundus L.), common ragweed (Ambrosia elatior L.), mustard (Brassica nigra (L.) W. D. J. Koch), guineagrass (Panicum maximum Jacq.), dallisgrass (Paspalum dilatatum Poir.), barnyardgrass (Echinochloa crus-galli (L). P. Beauv.), southern sandbur (Cenchrus echinatus L.), common sowthistle (Sonchus oleraceous L.), prickly sida (Sida spinosa L.), Italian ryegrass (Lolium multiflorum Lam.), common purslane (Portulaca oleracea L.), broadleaf signalgrass (Brachiaria platyphylla (Griseb.) Nash), common groundsel (Senecio vulgaris L.), common chickweed (Stellaria media (L.) Vill/Cyr.), tropical spiderwort (Commelina benghalensis L.), annual bluegrass (Poa annua L.), downy bromegrass (Bromus tectorum L.), itchgrass (Rottboellia cochinchinensis (L.) L.f.), quackgrass (Elytrigia repens (L.) Nevski), Canada horseweed (Erigeron Canadensis L.), field bindweed (Convolvulus arvensis L.), spotted spurge (Euphorbia maculata L.), common mallow (Malva sylvestris (=s silvestris) L.), and Russian thistle (Salsola kali L. ssp. Ruthenica (Iljin) Soo) were planted and treated preemergence with test chemicals formulated in a non-phytotoxic solvent mixture which included a surfactant.
At the same time, plants selected from these weed species were treated with postemergence applications of some of the test chemicals formulated in the same manner. Plants ranged in height from 2 to 18 cm (1- to 4-leaf stage) for postemergence treatments. Treated plants and controls were maintained in a greenhouse for 12 to 14 days, after which time all species were compared to controls and visually evaluated. Plant response ratings, summarized in Table E, are based on a scale of 0 to 100 where 0 is no effect and 100 is complete control. A dash (-) response means no test result.

windgrass = assay: Test C postemergence herbicide test; assay type: in vivo, Apera spica-venti; conditions: postemergence, scale 0 to 100
Method in brief: as §2

barnyardgrass = assay: Test E pre-/postemergence herbicide test; assay type: in vivo, Echinochloa crus-galli; conditions: Preemergence
Method in brief: as §1

quackgrass = assay: Test E pre-/postemergence herbicide test; assay type: in vivo, Elytrigia repens; conditions: Preemergence
Method in brief: as §1

Canada horseweed = assay: Test E pre-/postemergence herbicide test; assay type: in vivo, Erigeron Canadensis; conditions: Preemergence
Method in brief: as §1

blackgrass = assay: Test C postemergence herbicide test; assay type: in vivo, Alopecurus myosuroides
Method in brief: as §2

[1] = 250 g ai/ha, scale 0 (no effect) to 100 (complete control)
[2] = 500 g ai/ha, scale 0 (no effect) to 100 (complete control)
[3] = Postemergence, 125 g ai/ha, scale 0 to 100, 0 no effect, 100 complete control
[4] = Postemergence, 250 g ai/ha, scale 0 to 100, 0 no effect, 100 complete control
[5] = postemergence, 31 g ai/ha, scale 0 to 100
[6] = postemergence, 62 g ai/ha, scale 0 to 100 (0 no effect, 100 complete control)
[7] = postemergence, 125 g ai/ha, scale 0 to 100
[8] = postemergence, 62 g ai/ha, scale 0 to 100

Cc1nn(C(C)(C)C)nc1C(=O)Nc1cccc(C(=O)N2CC=CC2)c1 [Compound 393]
30: Plant response rating, Bluegrass (annual bluegrass; 125 g ai/ha, scale 0 to 100) | Plant response rating, Johnsongrass (johnsongrass; 62 g ai/ha, scale 0 to 100) | Plant response rating, Beggarticks, Bip. (bipinnate beggarticks; 62 g ai/ha, scale 0 to 100)
95: Plant response rating, Bluegrass (annual bluegrass; [2]) | Plant response rating, Crabgrass, Large (large crabgrass; [1]) | Plant response rating, Horseweed (Canada horseweed; 125 g ai/ha, scale 0 to 100)
35: Plant response rating, Barley, Winter (winter barley; [3]) | Plant response rating, Barley, Winter (winter barley; [4]) | Plant response rating, Barley, Winter (winter barley; [6])
100: Plant response rating, Crabgrass, Large (large crabgrass; [2]) | Plant response rating, Beggarticks, Bip. (bipinnate beggarticks; 125 g ai/ha, scale 0 to 100) | Plant response rating, Beggarticks, Bip. (bipinnate beggarticks; [1]) | Plant response rating, Beggarticks, Bip. (bipinnate beggarticks; [2]) | Plant response rating, Horseweed (Canada horseweed; [1]) | Plant response rating, Horseweed (Canada horseweed; [2])
45: Plant response rating, Windgrass (windgrass; 62 g ai/ha)
10: Plant response rating, Bluegrass (annual bluegrass; 62 g ai/ha, scale 0 to 100) | Plant response rating, Crabgrass, Large (large crabgrass; 62 g ai/ha, scale 0 to 100) | Plant response rating, Ryegrass, Italian (Italian ryegrass; 62 g ai/ha, scale 0 to 100)
20: Plant response rating, Barley, Winter (winter barley; [5]) | Plant response rating, Ryegrass, Italian (Italian ryegrass; 125 g ai/ha, scale 0 to 100)
90: Plant response rating, Horseweed (Canada horseweed; 62 g ai/ha, scale 0 to 100)
55: Plant response rating, Oat, Wild (wild oat; 62 g ai/ha) | Plant response rating, Windgrass (windgrass; 125 g ai/ha) | Plant response rating, Blackgrass (blackgrass; [5])
80: Plant response rating, Johnsongrass (johnsongrass; [2]) | Plant response rating, Crabgrass, Large (large crabgrass; 125 g ai/ha, scale 0 to 100) | Plant response rating, Barnyardgrass (barnyardgrass; [1]) | Plant response rating, Barnyardgrass (barnyardgrass; [2])
65: Plant response rating, Oat, Wild (wild oat; 125 g ai/ha) | Plant response rating, Canarygrass (canarygrass; [4]) | Plant response rating, Canarygrass (canarygrass; [7]) | Plant response rating, Canarygrass (canarygrass; [8]) | Plant response rating, Blackgrass (blackgrass; [4])
75: Plant response rating, Bluegrass (annual bluegrass; [1])
50: Plant response rating, Quackgrass (quackgrass; 62 g ai/ha, scale 0 to 100) | Plant response rating, Quackgrass (quackgrass; 125 g ai/ha, scale 0 to 100)
85: Plant response rating, Ryegrass, Italian (Italian ryegrass; [1]) | Plant response rating, Ryegrass, Italian (Italian ryegrass; [2])
60: Plant response rating, Johnsongrass (johnsongrass; 125 g ai/ha, scale 0 to 100) | Plant response rating, Johnsongrass (johnsongrass; [1]) | Plant response rating, Canarygrass (canarygrass; [5]) | Plant response rating, Barnyardgrass (barnyardgrass; 125 g ai/ha, scale 0 to 100) | Plant response rating, Quackgrass (quackgrass; [1]) | Plant response rating, Quackgrass (quackgrass; [2]) | Plant response rating, Blackgrass (blackgrass; [7]) | Plant response rating, Blackgrass (blackgrass; [8])
0: Plant response rating, Barnyardgrass (barnyardgrass; 62 g ai/ha, scale 0 to 100)

CCc1nn(C(C)(C)C)nc1C(=O)Nc1cccc(C(=O)N(C)CC)c1 [Compound 384]
90: Plant response rating, Crabgrass, Large (large crabgrass; 62 g ai/ha, scale 0 to 100)
35: Plant response rating, Oat, Wild (wild oat; 62 g ai/ha) | Plant response rating, Barley, Winter (winter barley; [3]) | Plant response rating, Barley, Winter (winter barley; [4]) | Plant response rating, Canarygrass (canarygrass; [7])
80: Plant response rating, Bluegrass (annual bluegrass; [1]) | Plant response rating, Johnsongrass (johnsongrass; [1]) | Plant response rating, Ryegrass, Italian (Italian ryegrass; [1]) | Plant response rating, Barnyardgrass (barnyardgrass; 125 g ai/ha, scale 0 to 100)
95: Plant response rating, Bluegrass (annual bluegrass; [2]) | Plant response rating, Ryegrass, Italian (Italian ryegrass; [2]) | Plant response rating, Horseweed (Canada horseweed; [1])
75: Plant response rating, Bluegrass (annual bluegrass; 125 g ai/ha, scale 0 to 100) | Plant response rating, Johnsongrass (johnsongrass; 125 g ai/ha, scale 0 to 100) | Plant response rating, Ryegrass, Italian (Italian ryegrass; 125 g ai/ha, scale 0 to 100) | Plant response rating, Horseweed (Canada horseweed; 125 g ai/ha, scale 0 to 100)
0: Plant response rating, Barley, Winter (winter barley; [5])
30: Plant response rating, Canarygrass (canarygrass; [8])
10: Plant response rating, Barley, Winter (winter barley; [6]) | Plant response rating, Beggarticks, Bip. (bipinnate beggarticks; 62 g ai/ha, scale 0 to 100)
20: Plant response rating, Canarygrass (canarygrass; [5]) | Plant response rating, Ryegrass, Italian (Italian ryegrass; 62 g ai/ha, scale 0 to 100)
45: Plant response rating, Oat, Wild (wild oat; 125 g ai/ha) | Plant response rating, Windgrass (windgrass; 125 g ai/ha) | Plant response rating, Windgrass (windgrass; 62 g ai/ha) | Plant response rating, Blackgrass (blackgrass; [4]) | Plant response rating, Blackgrass (blackgrass; [7]) | Plant response rating, Blackgrass (blackgrass; [5]) | Plant response rating, Blackgrass (blackgrass; [8])
100: Plant response rating, Crabgrass, Large (large crabgrass; 125 g ai/ha, scale 0 to 100) | Plant response rating, Crabgrass, Large (large crabgrass; [1]) | Plant response rating, Crabgrass, Large (large crabgrass; [2]) | Plant response rating, Beggarticks, Bip. (bipinnate beggarticks; [1]) | Plant response rating, Barnyardgrass (barnyardgrass; [2]) | Plant response rating, Horseweed (Canada horseweed; [2])
40: Plant response rating, Johnsongrass (johnsongrass; 62 g ai/ha, scale 0 to 100) | Plant response rating, Canarygrass (canarygrass; [4]) | Plant response rating, Barnyardgrass (barnyardgrass; 62 g ai/ha, scale 0 to 100)
85: Plant response rating, Johnsongrass (johnsongrass; [2]) | Plant response rating, Barnyardgrass (barnyardgrass; [1]) | Plant response rating, Quackgrass (quackgrass; [1]) | Plant response rating, Quackgrass (quackgrass; [2])
70: Plant response rating, Quackgrass (quackgrass; 125 g ai/ha, scale 0 to 100)
50: Plant response rating, Bluegrass (annual bluegrass; 62 g ai/ha, scale 0 to 100) | Plant response rating, Quackgrass (quackgrass; 62 g ai/ha, scale 0 to 100)
